Values of other authors, collected in paper PMC10640708 (ACS chemical biology, 2018).

Biological target: calcium sensing receptor (CaSR)
Conditions: read-out: EC50 of CaSR activation; Ca2+ alone

EC50: ~4 mM
SMILES: [Ca+2] [Ca^2+]
